Assay results from patent US11266715B2, “C3A receptor agonists for use against ischemic brain injury, stroke, traumatic brain injury, spinal cord injury and neurodegenerative disorders” (priority 2016, dated 2022).
Entries after “also recorded” stand apart in the source; their conditions may differ.

Columns and labels:
GFAP = GFAP immunoreactivity in dorsal hippocampus after neonatal HI; assay type: in vivo, mouse; settings: P55, 3 days treatment after HI
Procedure: (§1) On P51 (long-term study) or P55 (short-term study), mice were deeply anesthetized with thiopental [Pentothal Sodium (0.01 ml/g body weight), Hospira, Ill., USA)] and transcardially perfused with 0.9% saline, followed by 4% paraformaldehyde (PFA) in 0.1 M PBS. Brains were removed and post-fixed in 4% PFA at 4° C. for 24 h followed by 70% ethanol for 24 h. Tissue was processed using an automatic tissue processor (SAKURA Tissue Tek VIP 3000, Tournai, Belgium) and embedded in paraffin. Brains were cut at room temperature into 8-μm serial coronal sections using a sliding microtome (Microm HM 450, Thermo Scientific, Massachusetts, USA), attached to silane coated slides and dried at RT. […]
(§2) NeuN positive cells, GFAP positive relative area, as well as GAP-43, SYN, and VGLUT1 positive puncta were counted by using MetaMorph software (ver. 7.8.6, Molecular Devices, CA, USA) on confocal images obtained with a 20× (NeuN and GFAP) or 63× (GAP-43, SYN, and VGLUT1) objective (Carl Zeiss LSM 700 Laser Scanning Microscope, Jena, Germany). Iba-1 positive cell somata were counted on bright field images obtained with a 20× objective (Nikon Eclipse 80i). […]

Iba-1+ cells = test: Iba-1 positive cell density in dorsal hippocampus after neonatal HI; assay type: in vivo, mouse; settings: P55, 3 days treatment after HI
Procedure: as §1, §2

NeuN+ cells = test: NeuN positive cell density in dorsal hippocampus after neonatal HI; assay type: in vivo, mouse
Procedure: Neuronal nuclei (NeuN), growth associated protein 43 (GAP-43), synapsin I (SYN), vesicular glutamate transporter 1 (VGLUT1), Glial Fibrillary Acidic Protein (GFAP) and ionized calcium-binding adapter molecule 1 (Iba-1) were visualized in the cornu ammonis (CA) and dentate gyrus (DG) of the dorsal hippocampus by immunohistochemistry. Briefly, following heat-induced antigen retrieval with 0.01 M citrate buffer (pH 6, 0.05% Tween 20) for 3×5 min, sections were washed 3×5 min with PBS-T (0.05% Tween 20), non-specific protein binding was reduced by incubation with blocking buffer [4% normal donkey serum (NeuN and Iba-1), 1% bovine serum albumin (GAP-43 and SYN), 3% normal goat serum (VGLUT1), 2% bovine serum albumin (GFAP) in PBS-T] for 1 h at room temperature (RT). Tissue was then incubated with the primary antibody [anti-NeuN biotinylated (1:200, MAB 377B, Millipore, Mass., USA), anti-GAP-43 (1:1000, MAB347, Millipore, Mass., USA), anti-SYN (1:150, SC-7379, Santa Cruz, Calif., USA), anti-VGLUT1 (1:500, AB5905, Millipore, Mass., USA), anti-GFAP (1:200, Z0334, Dako, Stockholm, Sweden), anti-Iba-1 (1:500, 019-19741, Wako, Osaka, Japan)] in blocking buffer overnight at 4° C. One slide per staining batch was incubated only with blocking buffer without primary antibody and used as a negative control. Next, sections were washed 3×5 min with PBS-T and incubated with the secondary antibody [rabbit-anti mouse biotinylated Ig (1:200, GAP-43, E0354, Dako, Stockholm, Sweden), donkey-anti goat biotinylated Ig (1:200, SYN, 705065147, Jackson ImmunoResearch Inc., PA, USA), Alexa Fluor 488 goat-anti guinea pig Ig (1:500, VGLUT1, A11073, Molecular Probes, Oregon, USA), Alexa Fluor 488 goat-anti rabbit (1:2000, GFAP, A11034, Molecular Probes, Oregon, USA), donkey-anti rabbit biotinylated (1:500, Iba-1, 711-065-152, Jackson ImmunoResearch Inc., PA, USA), in blocking buffer for 1 h at RT. After washing 3×5 min with PBS-T, sections were incubated with Streptavidin-Cy3 (1:100 (GAP-43, SYN), 1:300 (NeuN), S6402, Sigma-Aldrich, Missouri, USA) in blocking buffer for 1 h at RT. Then, sections were washed 3×5 min with PBS-T, mounted with Pro Long Gold (P36931, Life Technologies, CA, USA) and cover slipped for 24 h before being sealed with nail polish. […]
as §2

synapsin I+ puncta = test: Synapsin I immunostaining of dorsal hippocampus after neonatal HI; assay type: in vivo, mouse; settings: between groups or hemispheres
Procedure: Neuronal nuclei (NeuN), growth associated protein 43 (GAP-43), synapsin I (SYN), vesicular glutamate transporter 1 (VGLUT1), Glial Fibrillary Acidic Protein (GFAP) and ionized calcium-binding adapter molecule 1 (Iba-1) were visualized in the cornu ammonis (CA) and dentate gyrus (DG) of the dorsal hippocampus by immunohistochemistry. Briefly, following heat-induced antigen retrieval with 0.01 M citrate buffer (pH 6, 0.05% Tween 20) for 3×5 min, sections were washed 3×5 min with PBS-T (0.05% Tween 20), non-specific protein binding was reduced by incubation with blocking buffer [4% normal donkey serum (NeuN and Iba-1), 1% bovine serum albumin (GAP-43 and SYN), 3% normal goat serum (VGLUT1), 2% bovine serum albumin (GFAP) in PBS-T] for 1 h at room temperature (RT). […]
as §2

[1] = tested on: mice subjected to neonatal hypoxia-ischemia; settings: single i.c.v. injection 1 h after HI, wild-type mice tested as adults (42 days later); not in C3aR−/− mice; cited from earlier work

**Q.** For “C3a: Purified human C3a peptide (Complement Technologies), C3a receptor agonist, amino acid sequence SEQ ID NO: 1”, which “GFAP relative area in CA1 and DG” value (GFAP) is on record?
**A.** did not differ between the hemispheres or in comparison with sham mice

**Q.** And the “density of Iba-1+ cells, ipsilateral vs contralateral” value (Iba-1+ cells)?
**A.** did not differ between the hemispheres

**Q.** And the “neuronal density in CA1 and CA3, ipsilesional vs contralesional hemisphere” value (NeuN+ cells; both HI groups, p<0.01 and p<0.05)?
**A.** decreased in the ipsilesional hemisphere

**Q.** And the “NeuN+ cell density in the DG” value (NeuN+ cells; data not shown)?
**A.** No effect

**Q.** And the “number of NeuN+ cells in injured CA3 vs sham mice” value (NeuN+ cells; p<0.01)?
**A.** lower compared with sham mice

**Q.** What about the “number of NeuN+ cells in injured CA1 vs sham mice” value (NeuN+ cells; p<0.05 for PBS) of the same substance?
**A.** of PBS but not C3a treated mice was lower compared with sham mice

**Q.** And the “density or average area of synapsin I+ puncta in CA1 or dentate gyrus” value (synapsin I+ puncta)?
**A.** did not find any differences

**Q.** And the “HI-induced cognitive/memory impairment after single intraventricular C3a” value [1]?
**A.** prevented HI-induced cognitive impairment; also recorded: ameliorated memory impairment
